According to US20230348453A1, “HALOGENATED-HETEROARYL AND OTHER HETEROCYCLIC KINASE INHIBITORS, AND USES THEREOF” (iOmx Therapeutics AG, priority 2020, published 2023):
Read-outs that look alike come from different tables or passages of the source.

Experiments:
[1] = Screening PK in mice after 30 mg/kg po; settings: for Cmax at 2 h / concentration at 6 h: mouse, plasma, po, 30 mg/kg
in vitro [2] = settings: human, microsomes
[3] = Human hepatocyte stability; format: in vitro ADME; settings: human, hepatocytes; for half-life: read-out: Human hepatocyte stability, Half-life; for microsomal CLint: read-out: Human hepatocyte stability, Intrinsic clearance
in vitro [4] = settings: mouse, microsomes
MDR1 (P-gp) = MDR1 (P-gp) (Homo sapiens (Human), UniProt P08183); assay: MDR1-MDCK effective efflux assay; settings: dog; for Papp: MDCK-MDR1; for efflux ratio: Table 5.1B
[5] = Mouse hepatocyte stability; format: in vitro ADME; settings: hepatocytes; for microsomal CLint: read-out: Mouse hepatocyte stability, Intrinsic clearance
[6] = Human plasma-protein binding; settings: for recovery at 4 h: human, plasma
[7] = Murine plasma protein binding; settings: for recovery at 4 h: mouse, plasma
[8] = MDCK wild type permeability/efflux; settings: dog
SIK3 [9] = molecular target: T1, SIK3 (Homo sapiens (Human), UniProt Q9Y2K2); assay: SIK3 kinase inhibition (IC50)
SIK2 = SIK2 (Homo sapiens (Human), UniProt Q9H0K1); assay: SIK2 kinase inhibition (IC50)
SIK3 [10] = molecular target: T1, SIK3; settings: read-out: SIK3 IC50
SRC (GST-HIS-tag) = SRC (GST-HIS-tag) (Homo sapiens (Human), UniProt P12931); format: biochemical
[11] = mouse, in vivo, po, 30 mg/kg
[12] = test system: MC38 murine tumour cell line; assay: TNF-sensitised cell viability assay (CellTiter-Glo); settings: read-out: MC38 IC50 (nM at 100 ng/mL TNF); 100 ng/mL TNF, 72 h
[13] = microsomes
[14] = microsomes; remark: listed apart in the source
[15] = test system: NFKB activity in PANC-1 cells; assay: TNF-induced NFKB activity (NFKB-dependent luciferase reporter); settings: 10 ng/ml rHuTNF, PANC-1 reporter cells (Table 9C)
[16] = test system: HDAC4 phosphorylation in PANC-1 cells; assay: HDAC4 phosphorylation (Meso Scale Discovery assay); settings: 10 ng/mL rHuTNF, 3 h (Table 9C)
[17] = Free plasma concentration after 6 h (nM), mice, 30 mg/kg po, 6 h
[18] = Plasma concentration after 6 h (nM), mice, 30 mg/kg po, 6 h
[19] = MDCK-MDR1, MDCK-MDR1 cells, Mean Efflux Ratio (MDR1)
[20] = MDCK-MDR1, P-gP driven efflux ratio (MDR1/wt)
[21] = read-out: Kinase: IC50 (nM) SIK2

Compound `Cc1nc(Nc2ncc(C(=O)Nc3c(CF)csc3Cl)s2)cc(N2CCN(CCO)CC2)n1` [Compound E3, N-(2-chloro-4-(fluoromethyl)thiophen-3-yl)-2-((6-(4-(2-hydroxyethyl)piperazin-1-yl)-2-methylpyrimidin-4-yl)amino)thiazole-5-carboxamide] has a Cmax at 2 h [1] of 0.889 µg/mL, a concentration at 6 h [1, 17] of 3.7 nM and a concentration at 6 h [1, 18] of 73 nM. It also gave a half-life (in vitro [2]) of 16 min, a microsomal CLint (in vitro [2]) of 86 µL/min/mg and a half-life [3] of 34 min. The microsomal CLint [3] was 41 µL/min/mg, the half-life (in vitro [4]) was 18 min and the microsomal CLint (in vitro [4]) was 76 µL/min/mg. For the same compound, the Papp (MDR1 (P-gp)) was 20 nm/s, the efflux ratio (MDR1 (P-gp); [19]) was 53 and the efflux ratio (MDR1 (P-gp); [20]) was 12. The half-life [5] was 63 min, the microsomal CLint [5] was 22 µL/min/mg and the “Human plasma-protein binding, Percentage unbound (%)” value ([6]; Table 5.1A) was 2%. The recovery at 4 h [6] was 76%, the “Murine plasma protein binding, Percentage unbound (%)” value ([7]; Table 5.1A) was 4% and the recovery at 4 h [7] was 89%. For the same compound, the Papp [8] was 70 nm/s, the efflux ratio [8] was 4.3 and the IC50 (SIK3 [9]) was 20 to 50 nM. The IC50 (SIK2; [21]) was < 10 nM.
`CC(=O)N1CCN(c2cc(Nc3ncc(C(=O)Nc4c(C)csc4Cl)s3)nc(C)n2)CC1` [Compound D8] gave an IC50 (SIK3 [10]) of ~0.15 µM.
With `Cc1nc(Nc2ncc(C(=O)Nc3c(C)cncc3C)s2)cc(N2CCN(CCO)CC2)n1` [Compound C5, N-(3,5-dimethylpyridin-4-yl)-2-((6-(4-(2-hydroxyethyl)piperazin-1-yl)-2-methylpyrimidin-4-yl)amino)thiazole-5-carboxamide] the IC50 (SIK3 [10]) was 0.34 µM and the IC50 (SRC (GST-HIS-tag)) was < 0.0015 µM.
In the case of `Cc1nc(Nc2ncc(C(=O)Nc3c(C)ccnc3C)s2)cc(N2CCN(CCO)CC2)n1` [Compound C1, N-(2,4-dimethylpyridin-3-yl)-2-((6-(4-(2-hydroxyethyl)piperazin-1-yl)-2-methylpyrimidin-4-yl)amino)thiazole-5-carboxamide], the IC50 (SIK3 [10]) is reported as 0.867 µM and the IC50 (SRC (GST-HIS-tag)) is reported as < 0.0015 µM.
In the case of `Cc1nc(Nc2ncc(C(=O)Nc3c(CF)csc3Cl)s2)cc(N2CCN(C)C(C)C2)n1` (single isomer, unassigned) [Compound E10-Ent-II, N-(2-chloro-4-(fluoromethyl)thiophen-3-yl)-2-((6-(3,4-dimethylpiperazin-1-yl)-2-methylpyrimidin-4-yl)amino)thiazole-5-carboxamide], the “IC50 against SIK3 relative to IC50 of E10-Ent-I” value (SIK3 [9]; separated enantiomers) is reported as “approximately half”.
In the case of `Cc1nc(Nc2ncc(C(=O)Nc3c(C(F)(F)F)csc3Cl)s2)cc(N2CCN(CCO)CC2)n1` [Compound E5, N-(2-chloro-4-(trifluoromethyl)thiophen-3-yl)-2-((6-(4-(2-hydroxyethyl)piperazin-1-yl)-2-methylpyrimidin-4-yl)amino)thiazole-5-carboxamide], the IC50 (SIK3 [9]) is reported as 50 to 100 nM and the IC50 (SIK2) is reported as 20 to 50 nM.
For `Cc1nc(Nc2ncc(C(=O)Nc3c(Cl)csc3F)s2)cc(N2CCN(C)CC2)n1` [Compound E15, N-(4-chloro-2-fluorothiophen-3-yl)-2-((2-methyl-6-(4-methylpiperazin-1-yl)pyrimidin-4-yl)amino)thiazole-5-carboxamide], the IC50 (SIK3 [9]) was 20 to 50 nM and the IC50 (SIK2; [21]) was < 20 nM.
With `Cc1nc(Nc2ncc(C(=O)Nc3c(CF)csc3Cl)s2)cc(N2CCCN(C)CC2)n1` [Compound E11, N-(2-chloro-4-(fluoromethyl)thiophen-3-yl)-2-((2-methyl-6-(4-methyl-1,4-diazepan-1-yl)pyrimidin-4-yl)amino)thiazole-5-carboxamide] the “fold improvement of free serum concentration over C7” value ([1]; mice, 30 mg/kg po, 6 h) was 2 fold, the “fold improvement of total serum concentration over C7” value ([1]; mice, 30 mg/kg po, 6 h) was 3.1 fold and the Cmax at 2 h [1] was 0.487 µg/mL. For the same compound, the concentration at 6 h [1, 17] was 7.7 nM, the concentration at 6 h [1, 18] was 219 nM and the half-life (in vitro [2]) was 19 min. The microsomal CLint (in vitro [2]) was 72 µL/min/mg, the half-life [3] was 26 min and the microsomal CLint [3] was 55 µL/min/mg. For the same compound, the half-life (in vitro [4]) was 21 min, the microsomal CLint (in vitro [4]) was 66 µL/min/mg and the Papp (MDR1 (P-gp)) was 30 nm/s. For the same compound, the efflux ratio (MDR1 (P-gp); [19]) was 61, the efflux ratio (MDR1 (P-gp); [20]) was 24 and the half-life [5] was 56 min. For the same compound, the microsomal CLint [5] was 25 µL/min/mg, the “Human plasma-protein binding, Percentage unbound (%)” value ([6]; Table 5.1A) was 3% and the recovery at 4 h [6] was 77%. The “Murine plasma protein binding, Percentage unbound (%)” value ([7]; Table 5.1A) was 1%, the recovery at 4 h [7] was 98% and the Papp [8] was 80 nm/s. The efflux ratio [8] was 2.6, the IC50 (SIK3 [9]) was 20 to 50 nM and the IC50 (SIK2; [21]) was < 10 nM.
In the case of `Cc1nc(Nc2ncc(C(=O)Nc3c(Cl)csc3C)s2)cc(N2CCN(CCO)CC2)n1` [Compound D1], the “Free concentration (nM) at 2 hours” value [11] is reported as 80 nM, the “Free concentration (nM) at 6 hours” value [11] is reported as 4 nM and the “Free concentration (nM) at 12 hours” value [11] is reported as 2.14 nM. For the same compound, the IC50 [12] was < 200 nM.
For `Cc1nc(Nc2ncc(C(=O)Nc3c(C)cncc3Cl)s2)cc(N2CCN(CCO)CC2)n1` [Compound C4, N-(3-chloro-5-methylpyridin-4-yl)-2-((6-(4-(2-hydroxyethyl)piperazin-1-yl)-2-methylpyrimidin-4-yl)amino)thiazole-5-carboxamide], the half-life (in vitro [2]) was 12 min, the half-life (in vitro [4]) was 37 min and the IC50 (SIK3 [10]) was 0.677 µM. The “Human plasma-protein binding, Percentage unbound (%)” value ([6]; Table 5A) was 2%, the “Murine plasma protein binding, Percentage unbound (%)” value ([7]; Table 5A) was 14% and the Mouse liver microsomal stability, Intrinsic clearance (L/min/mg) [13] was 38 µL/min/mg. The Human liver microsomal stability, Intrinsic clearance [14] was 115 µL/min/mg and the IC50 (SRC (GST-HIS-tag)) was < 0.0015 µM.
With `Cc1nc(Nc2ncc(C(=O)Nc3c(C)csc3Cl)s2)cc(N2CCN(C)CC2)n1` [Compound D9] the “Inhibition of NFKB activity” value [15] was “+”, the “Free concentration (nM) at 2 hours” value [11] was 44 nM and the “Free concentration (nM) at 6 hours” value [11] was 8 nM. For the same compound, the “Free concentration (nM) at 12 hours” value [11] was 2.71 nM, the “Inhibition of HDAC4 phosphorylation” value [16] was “+” and the IC50 (SIK3 [10]) was ~0.06 µM.
With `Cc1nc(Nc2ncc(C(=O)Nc3c(Cl)csc3Cl)s2)cc(N2CCN(CCO)CC2)n1` [Compound D7] the “Free concentration (nM) at 2 hours” value [11] was 43 nM, the “Free concentration (nM) at 6 hours” value [11] was 5 nM and the “Free concentration (nM) at 12 hours” value [11] was 1.10 nM.
In the case of `Cc1nc(NCCO)cc(Nc2ncc(C(=O)Nc3c(Cl)ccnc3C)s2)n1` [Compound C11, N-(4-chloro-2-methylpyridin-3-yl)-2-((6-((2-hydroxyethyl)amino)-2-methylpyrimidin-4-yl)amino)thiazole-5-carboxamide], the IC50 (SIK3 [10]) is reported as 1.51 µM and the IC50 (SRC (GST-HIS-tag)) is reported as < 0.0015 µM.
With `Cc1nc(Nc2ncc(C(=O)Nc3c(CF)csc3Cl)s2)cc(N2CCNC(=O)C2)n1` [Compound E12, N-(2-chloro-4-(fluoromethyl)thiophen-3-yl)-2-((2-methyl-6-(3-oxopiperazin-1-yl)pyrimidin-4-yl)amino)thiazole-5-carboxamide] the IC50 (SIK3 [9]) was 50 to 100 nM and the IC50 (SIK2; [21]) was < 20 nM.
With `Cc1nc(Nc2ncc(C(=O)Nc3c(C(F)F)csc3Cl)s2)cc(N2CCN(C)CC2)n1` [Compound E13, N-(2-chloro-4-(difluoromethyl)thiophen-3-yl)-2-((2-methyl-6-(4-methylpiperazin-1-yl)pyrimidin-4-yl)amino)thiazole-5-carboxamide] the IC50 (SIK3 [9]; read-out: Kinase: IC50 (nM) SIK3) was < 20 nM and the IC50 (SIK2; [21]) was < 10 nM.
In the case of `Cc1nc(Nc2ncc(C(=O)Nc3cccnc3C)s2)cc(N2CCN(CCO)CC2)n1` [Compound C6, 2-((6-(4-(2-hydroxyethyl)piperazin-1-yl)-2-methylpyrimidin-4-yl)amino)-N-(2-methylpyridin-3-yl)thiazole-5-carboxamide], the IC50 (SIK3 [10]) is reported as 0.987 µM and the IC50 (SRC (GST-HIS-tag)) is reported as < 0.0015 µM.
In the case of `Cc1nc(Nc2ncc(C(=O)Nc3c(Br)ccnc3C)s2)cc(N2CCN(CCO)CC2)n1` [Compound C3, N-(4-bromo-2-methylpyridin-3-yl)-2-((6-(4-(2-hydroxyethyl)piperazin-1-yl)-2-methylpyrimidin-4-yl)amino)thiazole-5-carboxamide], the IC50 (SIK3 [10]) is reported as 2.78 µM.
With `Cc1nc(Nc2ncc(C(=O)Nc3c(Cl)csc3F)s2)cc(N2CCN(CCO)CC2)n1` [Compound E2, N-(4-chloro-2-fluorothiophen-3-yl)-2-((6-(4-(2-hydroxyethyl)piperazin-1-yl)-2-methylpyrimidin-4-yl)amino)thiazole-5-carboxamide] the IC50 (SIK3 [9]) was 50 to 100 nM and the IC50 (SIK2; [21]) was < 10 nM.
